The results in this text go back to PMC12332667, “Role of Structural Modifications in Peptidomimetic Compounds as Potential Antimicrobial Agents against Staphylococcus aureus and Streptococcus pyogenes: Balancing Bioavailability, Safety, and Antimicrobial Activity” (ACS Omega, 2025).

In brackets after ≈: the same amount, converted by molar mass. Several values for one entry are separate records, joined by “and”; a condition that tells them apart may be missing. Equal entries are not always repeated. Residues, ends and D or L forms follow the SMILES beside them. Some results are limits rather than exact numbers.

One series relates to S. schleiferi c.i. The series can be described thus: MIC/MBC broth microdilution, S. schleiferi. The class given is cell-based, Staphylococcus schleiferi. Summed up: (§1)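 BHI broth microdilution (NCCLS); ~10^5 CFU/mL; 37 °C, 18 h. MIC = lowest conc., no visible growth (≥90% vs untreated). MBC = ≤3 colonies, ≥99.9% kill. Water/DMSO/EtOH solvent controls; technical triplicate ×3 biological repeats.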

In the next series the test system is S. agalactiae ATCC 27956. The series can be described thus: MIC/MBC broth microdilution, S. agalactiae. The class given is cell-based, Streptococcus agalactiae. The note with it: S. agalactiae. A digest of the protocol:
as §1

The test system of another series is S. intemrdius c.i. In words: MIC/MBC broth microdilution, S. intermedius. The class given is cell-based, Staphylococcus intermedius. Summed up: as §1
The test system of a further series is S. mutans c.i. The series can be described thus: MIC/MBC broth microdilution, S. mutans. The class given is cell-based, Streptococcus mutans. Summed up:
as §1

The next series deals with P. vulgaris ATCC 6896. The series can be described thus: MIC/MBC broth microdilution, P. vulgaris. The class given is cell-based, Proteus vulgaris. Summed up:
as §1

In series [1] the test system is immortalized human keratinocytes (HaCaT). The series can be described thus: LDH cytotoxicity test, keratinocytes. The class given is cell-based. The note with it: for cytotoxicity (LDH), in words / concentration at which cytotoxic effect starts: 48 h; for cytotoxicity (LDH), in words: 50-150 μg/mL; for concentration at which cytotoxic effect starts: LDH. Summed up: (§2)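 Cytotoxicity as LDH release after 48 h serum-free treatment (50, 100, 150 μg/mL peptidomimetics) of 46BR.1N fibroblasts or HaCaT keratinocytes seeded at 5000 per well. Absorbance 450 nm; untreated set as 0% and Triton X-100 1% as maximal release; Mann–Whitney U test, p ≤ 0.05.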

In another series the test system is fibroblasts (46BR.1N). The series can be described thus: LDH cytotoxicity test, fibroblasts. The class given is cell-based. To be noted: for cytotoxicity (LDH), in words / concentration at which cytotoxic effect starts: 48 h; for cytotoxicity (LDH), in words: 50-150 μg/mL; for concentration at which cytotoxic effect starts: LDH. A digest of the protocol: as §2
Setting [2] is: 48 h, 50, 100 and 150 μg/mL, vs 1% Triton X-100.

Turning to `CC(C)[C@@H](CNC(=O)C(=Cc1ccccc1)c1ccccc1)NC(=O)[C@H](CCCNC(=N)N)NC(=O)[C@H](CCCCNC(=N)N)NC(=O)OCc1ccccc1` [Compound A-192], the MBC against S. schleiferi c.i. (H2O) came out at 256 µg/mL (≈ 333 µM); against S. schleiferi c.i. (water additive DMSO) it was 256 µg/mL (≈ 333 µM); against S. schleiferi c.i. (water additive EtOH), 256 µg/mL (≈ 333 µM); with S. intemrdius c.i. (H2O), 16 µg/mL (≈ 20.8 µM); in the series with S. intemrdius c.i. (water additive DMSO) it was 16 µg/mL (≈ 20.8 µM); in the series on S. intemrdius c.i. (water additive EtOH) it was 16 µg/mL (≈ 20.8 µM). Besides, the MIC in the series with S. schleiferi c.i. (H2O) came out at 256 µg/mL (≈ 333 µM); against S. schleiferi c.i. (water additive DMSO), 256 µg/mL (≈ 333 µM); against S. schleiferi c.i. (water additive EtOH), 256 µg/mL (≈ 333 µM); against S. agalactiae ATCC 27956 (H2O), 32 µg/mL (≈ 41.6 µM); with S. agalactiae ATCC 27956 (water additive EtOH) it was 32 µg/mL (≈ 41.6 µM); in the series with S. intemrdius c.i. (H2O), 8 µg/mL (≈ 10.4 µM). Also, the MIC against S. intemrdius c.i. (water additive DMSO) was 8 µg/mL (≈ 10.4 µM); in the series on S. intemrdius c.i. (water additive EtOH), 8 µg/mL (≈ 10.4 µM); in the series with S. mutans c.i. (H2O), above 512 µg/mL; in the series with S. mutans c.i. (water additive DMSO) it was above 512 µg/mL; in the series on S. mutans c.i. (water additive EtOH), above 512 µg/mL; with P. vulgaris ATCC 6896 (H2O), above 512 µg/mL. Besides, the MIC against P. vulgaris ATCC 6896 (water additive DMSO) and against P. vulgaris ATCC 6896 (water additive EtOH) was above 512 µg/mL in each case. Moreover, the entries for the “cytotoxicity (LDH), in words” value (in series [1]; in the series with fibroblasts (46BR.1N)) were “high cytotoxicity toward keratinocytes” and “much lower”, respectively.
Turning to `CC(C)[C@@H](CNC(=O)C(=Cc1ccccc1)c1ccccc1)NC(=O)[C@H](Cc1c[nH]cn1)NC(=O)[C@H](CCCCNC(=N)N)NC(=O)OCc1ccccc1` [Compound A-193], the MBC with S. schleiferi c.i. (H2O) turned out to be 32 µg/mL (≈ 42.7 µM); against S. schleiferi c.i. (water additive DMSO) it was 8 µg/mL (≈ 10.7 µM); with S. schleiferi c.i. (water additive EtOH) it was 32 µg/mL (≈ 42.7 µM); against S. intemrdius c.i. (H2O), 32 µg/mL (≈ 42.7 µM); with S. intemrdius c.i. (water additive EtOH) it was 32 µg/mL (≈ 42.7 µM); against S. mutans c.i. (water additive DMSO), 16 µg/mL (≈ 21.3 µM). This compound returned an MBC against S. mutans c.i. (water additive EtOH) of 16 µg/mL (≈ 21.3 µM). Further, the MIC in the series on S. schleiferi c.i. (H2O) was 8 µg/mL (≈ 10.7 µM); against S. schleiferi c.i. (water additive DMSO), 4 µg/mL (≈ 5.33 µM); with S. schleiferi c.i. (water additive EtOH) it was 8 µg/mL (≈ 10.7 µM); in the series on S. agalactiae ATCC 27956 (water additive EtOH), 32 µg/mL (≈ 42.7 µM); in the series with S. intemrdius c.i. (H2O), 16 µg/mL (≈ 21.3 µM); in the series with S. intemrdius c.i. (water additive DMSO), 32 µg/mL (≈ 42.7 µM). Further, the MIC with S. intemrdius c.i. (water additive EtOH) was 16 µg/mL (≈ 21.3 µM); in the series with S. mutans c.i. (water additive DMSO) it was 8 µg/mL (≈ 10.7 µM); with S. mutans c.i. (water additive EtOH), 8 µg/mL (≈ 10.7 µM); with P. vulgaris ATCC 6896 (H2O), above 512 µg/mL; against P. vulgaris ATCC 6896 (water additive DMSO), above 512 µg/mL; in the series with P. vulgaris ATCC 6896 (water additive EtOH) it was above 512 µg/mL. Moreover, the “cytotoxicity (LDH), in words” value (in series [1]; with fibroblasts (46BR.1N)) was “cytotoxic only at a concentration of 150 μg/mL” in each case. In addition, the “concentration at which cytotoxic effect starts” value (in series [1]; in the series with fibroblasts (46BR.1N)) was 150 µg/mL each time.
For the compound `CC(C)[C@H](NC(=O)[C@H](Cc1c[nH]cn1)NC(=O)[C@H](CCCNC(=N)N)NC(=O)OCc1ccccc1)C(=O)NCCc1ccccc1` [Compound A-219] (HELM PEPTIDE1{[O=C(OCc1ccccc1)[*:2]].R.H.V.[c1ccc(CCN[*:1])cc1]}$$$$V2.0), the MIC in the series on S. schleiferi c.i. (H2O), against S. schleiferi c.i. (water additive DMSO), in the series with S. schleiferi c.i. (water additive EtOH), against S. agalactiae ATCC 27956 (H2O), with S. agalactiae ATCC 27956 (water additive DMSO) and with S. agalactiae ATCC 27956 (water additive EtOH) was above 512 µg/mL in each case. Further, the MIC in the series on S. mutans c.i. (H2O), in the series on S. mutans c.i. (water additive DMSO), against S. mutans c.i. (water additive EtOH), in the series with P. vulgaris ATCC 6896 (H2O), in the series on P. vulgaris ATCC 6896 (water additive DMSO) and against P. vulgaris ATCC 6896 (water additive EtOH) was above 512 µg/mL throughout. Also, the “cytotoxicity (LDH), in words” value in series [1] was “no adverse effects”; in the series with fibroblasts (46BR.1N), “slight cytotoxicity”.
For the compound `CC(C)[C@H](NC(=O)[C@H](Cc1c[nH]cn1)NC(=O)[C@H](CCCCN)NC(=O)OCc1ccccc1)C(=O)NCCc1ccccc1` [Compound A-220] (HELM PEPTIDE1{[O=C(OCc1ccccc1)[*:2]].K.H.V.[c1ccc(CCN[*:1])cc1]}$$$$V2.0), the MIC was above 512 µg/mL in the series on S. schleiferi c.i. (H2O); above 512 µg/mL in the series on S. schleiferi c.i. (water additive DMSO); above 512 µg/mL against S. schleiferi c.i. (water additive EtOH); 512 µg/mL (≈ 826 µM) with S. agalactiae ATCC 27956 (H2O); 512 µg/mL (≈ 826 µM) against S. agalactiae ATCC 27956 (water additive DMSO); 512 µg/mL (≈ 826 µM) against S. agalactiae ATCC 27956 (water additive EtOH). The MIC with S. mutans c.i. (H2O) is 256 µg/mL (≈ 413 µM); in the series on S. mutans c.i. (water additive DMSO), above 512 µg/mL; in the series with S. mutans c.i. (water additive EtOH), above 512 µg/mL; with P. vulgaris ATCC 6896 (H2O), above 512 µg/mL; with P. vulgaris ATCC 6896 (water additive DMSO), above 512 µg/mL; against P. vulgaris ATCC 6896 (water additive EtOH), above 512 µg/mL. For the same compound, the MBC in the series with S. agalactiae ATCC 27956 (H2O), against S. agalactiae ATCC 27956 (water additive DMSO), in the series with S. agalactiae ATCC 27956 (water additive EtOH) and in the series with S. mutans c.i. (H2O) was 512 µg/mL (≈ 826 µM) throughout. In addition, the “cytotoxicity (LDH)” value in series [1] (setting [2]) was 10–15% and 10%; in the series on fibroblasts (46BR.1N) (setting [2]), 10–15% and 10%. Moreover, the “concentration at which cytotoxic effect starts” value (in series [1]; in the series with fibroblasts (46BR.1N)) was above 150 µg/mL in each case.
Turning to `CC(C)[C@H](NC(=O)[C@H](CCCNC(=N)N)NC(=O)[C@H](CCCNC(=N)N)NC(=O)OCc1ccccc1)C(=O)NCCc1ccccc1` [Compound A-221] (HELM PEPTIDE1{[O=C(OCc1ccccc1)[*:2]].R.R.V.[c1ccc(CCN[*:1])cc1]}$$$$V2.0), the MIC against S. schleiferi c.i. (H2O) was above 512 µg/mL; against S. schleiferi c.i. (water additive DMSO) it was above 512 µg/mL; against S. schleiferi c.i. (water additive EtOH), above 512 µg/mL; against S. agalactiae ATCC 27956 (H2O), 256 µg/mL (≈ 384 µM); with S. agalactiae ATCC 27956 (water additive DMSO) it was 256 µg/mL (≈ 384 µM); with S. agalactiae ATCC 27956 (water additive EtOH), 256 µg/mL (≈ 384 µM). For the same compound, the MIC with S. mutans c.i. (H2O), in the series with S. mutans c.i. (water additive DMSO), with S. mutans c.i. (water additive EtOH), in the series with P. vulgaris ATCC 6896 (H2O), with P. vulgaris ATCC 6896 (water additive DMSO) and in the series with P. vulgaris ATCC 6896 (water additive EtOH) was above 512 µg/mL in each case. The MBC in the series on S. agalactiae ATCC 27956 (H2O), in the series with S. agalactiae ATCC 27956 (water additive DMSO) and against S. agalactiae ATCC 27956 (water additive EtOH) was 512 µg/mL (≈ 768 µM) throughout. Besides, the “cytotoxicity (LDH), in words” value in series [1] is “no adverse effects”; with fibroblasts (46BR.1N), “slight cytotoxicity”.
